Reference: ChEMBL document CHEMBL2407081, “Discovery of potent, isoform-selective inhibitors of histone deacetylase containing chiral heterocyclic capping groups and a N-(2-aminophenyl)benzamide binding unit” (J Med Chem, 2013)

Assays:
Histone deacetylase 2 = Histone deacetylase 2 (Homo sapiens, UniProt Q92769); assay: Inhibition of recombinant His-tagged HDAC2 (1 to 488) (unknown origin) using MAL as substrate incubated for 3 hrs prior to substrate addition measured after 60 mins by fluorescence plate reader analysis
Histone deacetylase 8 = biological target: T1, Histone deacetylase 8 (Homo sapiens, UniProt Q9BY41); assay: Inhibition of recombinant HDAC8 (unknown origin) expressed in Escherichia coli BL21 using MAL as substrate incubated for 15 mins prior to substrate addition measured after 60 mins by fluorescence plate reader analysis
T1 sequence (Q9BY41 whole entry): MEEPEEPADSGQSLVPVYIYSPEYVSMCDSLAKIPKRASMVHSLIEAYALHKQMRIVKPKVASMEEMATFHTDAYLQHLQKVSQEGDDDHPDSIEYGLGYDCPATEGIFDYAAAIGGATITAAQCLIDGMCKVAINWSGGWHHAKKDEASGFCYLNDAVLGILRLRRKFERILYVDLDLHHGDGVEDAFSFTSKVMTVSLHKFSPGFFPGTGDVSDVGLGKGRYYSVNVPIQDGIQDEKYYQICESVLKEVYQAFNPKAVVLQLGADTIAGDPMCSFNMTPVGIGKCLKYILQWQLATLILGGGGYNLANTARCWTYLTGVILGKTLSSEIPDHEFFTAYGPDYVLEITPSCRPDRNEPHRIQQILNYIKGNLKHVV

[1] = biological target: Histone deacetylase 3/NCoR1 (Homo sapiens, UniProt O15379); assay: Inhibition of recombinant HDAC3-NCoR1 (unknown origin) using MAL as substrate incubated for 3 hrs prior to substrate addition measured after 60 mins by fluorescence plate reader analysis; format: protein-complex assay
[2] = biological target: T2, Protein deacetylase HDAC6 (Homo sapiens, UniProt Q9UBN7); assay: Inhibition of recombinant His-tagged HDAC6 (unknown origin) using Fluor-de-Lys SIRT1 as substrate incubated for 3 hrs prior to substrate addition measured after 60 mins by fluorescence plate reader analysis
T2 sequence (Q9UBN7 whole entry): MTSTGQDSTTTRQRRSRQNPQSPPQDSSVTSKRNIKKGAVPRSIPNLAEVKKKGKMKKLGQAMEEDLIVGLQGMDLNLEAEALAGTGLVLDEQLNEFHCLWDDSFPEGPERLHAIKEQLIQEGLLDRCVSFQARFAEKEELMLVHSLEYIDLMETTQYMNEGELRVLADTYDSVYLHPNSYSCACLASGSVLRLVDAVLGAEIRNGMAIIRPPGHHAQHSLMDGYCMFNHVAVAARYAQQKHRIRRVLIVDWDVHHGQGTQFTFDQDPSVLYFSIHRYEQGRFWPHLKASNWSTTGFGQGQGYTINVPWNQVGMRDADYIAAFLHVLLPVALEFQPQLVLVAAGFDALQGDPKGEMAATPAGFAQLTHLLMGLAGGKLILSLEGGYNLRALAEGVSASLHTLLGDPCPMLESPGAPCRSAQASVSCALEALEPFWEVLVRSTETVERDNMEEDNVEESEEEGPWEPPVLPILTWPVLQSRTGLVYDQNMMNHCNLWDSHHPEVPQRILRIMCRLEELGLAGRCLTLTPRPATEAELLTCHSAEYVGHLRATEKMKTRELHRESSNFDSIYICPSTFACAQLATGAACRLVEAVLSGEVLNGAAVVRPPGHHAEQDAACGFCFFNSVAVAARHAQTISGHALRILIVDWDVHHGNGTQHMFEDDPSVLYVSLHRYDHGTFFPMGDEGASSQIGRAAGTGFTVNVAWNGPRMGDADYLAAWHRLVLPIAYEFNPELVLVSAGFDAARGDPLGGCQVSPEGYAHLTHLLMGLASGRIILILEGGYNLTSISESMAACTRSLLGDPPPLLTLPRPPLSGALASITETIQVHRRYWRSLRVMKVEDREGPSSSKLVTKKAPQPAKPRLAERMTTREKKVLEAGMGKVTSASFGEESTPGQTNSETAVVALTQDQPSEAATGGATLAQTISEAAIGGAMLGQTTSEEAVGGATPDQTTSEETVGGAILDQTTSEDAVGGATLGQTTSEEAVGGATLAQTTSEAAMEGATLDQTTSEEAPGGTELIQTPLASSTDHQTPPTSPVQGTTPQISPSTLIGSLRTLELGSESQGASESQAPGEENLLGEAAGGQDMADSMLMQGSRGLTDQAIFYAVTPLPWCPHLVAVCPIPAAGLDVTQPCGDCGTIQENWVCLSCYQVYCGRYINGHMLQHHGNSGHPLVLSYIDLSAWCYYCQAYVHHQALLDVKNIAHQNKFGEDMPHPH

Histone deacetylase 1 = Histone deacetylase 1 (Homo sapiens, UniProt Q13547); assay: Inhibition of recombinant C-terminal FLAG-tagged HDAC1 (unknown origin) expressed in Escherichia coli BL21 using MAL as substrate incubated for 1 hr prior to substrate addition measured after 60 mins by fluorescence plate reader analysis
A549 = assay: Cytotoxicity against human A549 cells assessed as growth inhibition by measuring cellular ATP level after 72 hrs by cell-titer glo assay; format: functional, cell-based; settings: A549, 72 h
DU-145 = assay: Cytotoxicity against human DU145 cells assessed as growth inhibition by measuring cellular ATP level after 72 hrs by cell-titer glo assay; format: functional, cell-based; settings: DU-145, 72 h
HCT-116 = assay: Cytotoxicity against human HCT116 cells assessed as growth inhibition by measuring cellular ATP level after 72 hrs by cell-titer glo assay; format: functional, cell-based; settings: HCT-116, 72 h
MCF7 = assay: Cytotoxicity against human MCF7 cells assessed as growth inhibition by measuring cellular ATP level after 72 hrs by cell-titer glo assay; format: functional, cell-based; settings: MCF7, 72 h

Sequence of Histone deacetylase 1 (Q13547 whole entry): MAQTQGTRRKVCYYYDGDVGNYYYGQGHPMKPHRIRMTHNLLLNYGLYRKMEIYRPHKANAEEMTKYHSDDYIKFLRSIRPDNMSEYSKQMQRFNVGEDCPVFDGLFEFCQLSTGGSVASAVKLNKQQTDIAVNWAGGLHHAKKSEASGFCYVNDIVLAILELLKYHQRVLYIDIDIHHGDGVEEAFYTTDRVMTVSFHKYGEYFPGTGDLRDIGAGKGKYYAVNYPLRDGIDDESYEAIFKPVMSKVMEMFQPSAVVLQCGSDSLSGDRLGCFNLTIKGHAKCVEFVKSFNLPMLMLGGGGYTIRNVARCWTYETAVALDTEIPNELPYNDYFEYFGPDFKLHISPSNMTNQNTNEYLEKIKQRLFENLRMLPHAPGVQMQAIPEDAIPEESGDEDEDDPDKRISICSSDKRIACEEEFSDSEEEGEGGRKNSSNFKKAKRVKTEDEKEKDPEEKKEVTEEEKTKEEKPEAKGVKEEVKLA
Sequence of Histone deacetylase 3/NCoR1 (O15379 whole entry): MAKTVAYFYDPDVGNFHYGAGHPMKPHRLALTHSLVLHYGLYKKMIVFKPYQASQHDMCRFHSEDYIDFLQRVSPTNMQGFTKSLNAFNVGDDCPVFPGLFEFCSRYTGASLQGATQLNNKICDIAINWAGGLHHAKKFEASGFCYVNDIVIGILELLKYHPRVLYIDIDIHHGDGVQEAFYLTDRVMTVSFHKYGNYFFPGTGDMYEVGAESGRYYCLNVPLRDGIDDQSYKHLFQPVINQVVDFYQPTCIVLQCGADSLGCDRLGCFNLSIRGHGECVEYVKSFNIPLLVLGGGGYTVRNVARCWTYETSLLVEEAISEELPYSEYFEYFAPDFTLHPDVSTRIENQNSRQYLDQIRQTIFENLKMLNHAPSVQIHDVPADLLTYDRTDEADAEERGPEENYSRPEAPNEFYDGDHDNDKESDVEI
Sequence of Histone deacetylase 3/NCoR1 (O75376 whole entry, further chain): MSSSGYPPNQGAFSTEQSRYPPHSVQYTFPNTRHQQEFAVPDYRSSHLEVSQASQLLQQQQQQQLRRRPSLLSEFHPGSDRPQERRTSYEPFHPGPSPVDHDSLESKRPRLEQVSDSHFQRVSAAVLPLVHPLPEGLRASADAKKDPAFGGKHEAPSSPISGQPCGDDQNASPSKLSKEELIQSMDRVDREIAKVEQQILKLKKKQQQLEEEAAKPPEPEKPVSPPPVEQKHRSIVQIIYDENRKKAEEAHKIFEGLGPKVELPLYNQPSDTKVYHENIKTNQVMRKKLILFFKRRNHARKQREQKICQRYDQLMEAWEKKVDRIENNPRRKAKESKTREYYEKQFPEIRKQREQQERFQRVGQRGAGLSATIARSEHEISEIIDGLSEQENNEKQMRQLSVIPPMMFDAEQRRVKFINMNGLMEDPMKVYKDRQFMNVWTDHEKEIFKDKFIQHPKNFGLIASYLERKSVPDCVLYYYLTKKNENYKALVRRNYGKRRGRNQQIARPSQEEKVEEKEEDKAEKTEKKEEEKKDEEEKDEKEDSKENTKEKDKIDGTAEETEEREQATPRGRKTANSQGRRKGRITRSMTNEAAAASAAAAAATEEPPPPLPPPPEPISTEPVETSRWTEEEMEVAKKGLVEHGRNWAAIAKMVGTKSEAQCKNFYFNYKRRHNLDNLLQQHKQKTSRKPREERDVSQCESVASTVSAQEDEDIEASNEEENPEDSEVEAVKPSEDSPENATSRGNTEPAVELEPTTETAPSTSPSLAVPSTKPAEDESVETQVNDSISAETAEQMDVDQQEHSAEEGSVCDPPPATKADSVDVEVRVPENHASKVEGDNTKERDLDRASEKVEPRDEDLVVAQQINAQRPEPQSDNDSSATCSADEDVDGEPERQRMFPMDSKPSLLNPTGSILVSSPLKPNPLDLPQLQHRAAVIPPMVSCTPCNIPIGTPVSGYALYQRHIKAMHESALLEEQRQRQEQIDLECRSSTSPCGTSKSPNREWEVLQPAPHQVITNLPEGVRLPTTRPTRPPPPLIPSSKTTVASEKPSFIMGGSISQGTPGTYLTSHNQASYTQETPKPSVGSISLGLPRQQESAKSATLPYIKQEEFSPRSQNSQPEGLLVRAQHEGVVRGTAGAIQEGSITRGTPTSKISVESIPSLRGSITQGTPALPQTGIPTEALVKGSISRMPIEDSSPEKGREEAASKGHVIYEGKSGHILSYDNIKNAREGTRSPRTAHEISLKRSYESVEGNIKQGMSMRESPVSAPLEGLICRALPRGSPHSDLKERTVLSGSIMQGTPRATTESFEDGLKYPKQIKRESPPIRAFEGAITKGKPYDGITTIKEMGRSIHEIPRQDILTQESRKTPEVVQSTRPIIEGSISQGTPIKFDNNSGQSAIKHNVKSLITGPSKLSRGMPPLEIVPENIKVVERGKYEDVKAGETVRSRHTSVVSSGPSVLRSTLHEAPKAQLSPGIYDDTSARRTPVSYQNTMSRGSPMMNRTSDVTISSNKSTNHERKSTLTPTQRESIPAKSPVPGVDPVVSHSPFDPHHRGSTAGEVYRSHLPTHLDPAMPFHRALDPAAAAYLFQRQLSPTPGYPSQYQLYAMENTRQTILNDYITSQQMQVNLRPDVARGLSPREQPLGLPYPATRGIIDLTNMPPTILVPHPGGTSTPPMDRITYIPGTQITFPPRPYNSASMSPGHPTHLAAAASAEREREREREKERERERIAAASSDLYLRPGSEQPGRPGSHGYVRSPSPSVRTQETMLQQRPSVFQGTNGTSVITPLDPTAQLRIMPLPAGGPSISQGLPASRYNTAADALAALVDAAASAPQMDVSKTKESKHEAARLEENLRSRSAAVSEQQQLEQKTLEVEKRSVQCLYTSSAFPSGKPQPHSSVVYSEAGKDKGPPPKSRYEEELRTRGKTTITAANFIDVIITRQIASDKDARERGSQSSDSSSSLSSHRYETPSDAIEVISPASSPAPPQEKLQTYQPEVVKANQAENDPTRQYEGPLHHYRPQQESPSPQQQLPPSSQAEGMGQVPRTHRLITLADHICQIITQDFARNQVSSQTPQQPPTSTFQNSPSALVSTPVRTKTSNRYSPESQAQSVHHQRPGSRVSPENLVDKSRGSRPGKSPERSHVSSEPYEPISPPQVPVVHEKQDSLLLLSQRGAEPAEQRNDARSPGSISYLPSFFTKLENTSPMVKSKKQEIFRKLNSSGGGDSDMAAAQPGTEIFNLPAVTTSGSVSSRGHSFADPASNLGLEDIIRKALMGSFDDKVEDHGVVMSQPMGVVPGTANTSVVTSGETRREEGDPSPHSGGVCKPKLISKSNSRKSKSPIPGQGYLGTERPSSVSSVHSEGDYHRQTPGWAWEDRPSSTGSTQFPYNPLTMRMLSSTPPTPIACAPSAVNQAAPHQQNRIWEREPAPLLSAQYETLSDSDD
Sequence of Histone deacetylase 2 (Q92769 whole entry): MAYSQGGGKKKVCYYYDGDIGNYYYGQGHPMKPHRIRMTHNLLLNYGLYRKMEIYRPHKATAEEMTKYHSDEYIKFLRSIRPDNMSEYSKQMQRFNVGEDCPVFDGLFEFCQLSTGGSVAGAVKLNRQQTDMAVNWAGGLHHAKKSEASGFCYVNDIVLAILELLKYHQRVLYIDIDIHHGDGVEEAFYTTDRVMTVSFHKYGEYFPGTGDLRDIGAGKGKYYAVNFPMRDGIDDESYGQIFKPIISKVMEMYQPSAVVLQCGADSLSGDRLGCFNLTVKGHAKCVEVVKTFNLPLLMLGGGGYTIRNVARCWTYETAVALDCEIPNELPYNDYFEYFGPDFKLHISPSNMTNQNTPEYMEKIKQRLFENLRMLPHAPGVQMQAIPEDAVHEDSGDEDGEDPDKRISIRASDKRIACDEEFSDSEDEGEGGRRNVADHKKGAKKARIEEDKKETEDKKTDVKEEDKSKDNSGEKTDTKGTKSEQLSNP

SMILES	IC50 (Histone deacetylase 2)	IC50 (Histone deacetylase 8)	IC50 [1]	IC50 [2]	IC50 (Histone deacetylase 1)	IC50 (A549)	IC50 (DU-145)	IC50 (HCT-116)	IC50 (MCF7)
COc1ccc(NC(=O)c2ccc(CNc3nccc(-c4cccnc4)n3)cc2)c(N)c1	248 nM	> 20000 nM	111 nM	> 20000 nM					
Nc1cc(C(=O)O)ccc1NC(=O)c1ccc(CNc2nccc(-c3cccnc3)n2)cc1	> 20000 nM	> 20000 nM	> 20000 nM	> 20000 nM					
CC(C)(C)OC(=O)N1C(NCc2ccc(C(=O)Nc3ccccc3N)cc2)=NC(=O)C1Cc1c[nH]c2ccccc12 (racemic)	48 nM	27200 nM	40 nM	> 20000 nM	500 nM				
Nc1ccccc1NC(=O)c1ccc(CN=C2NC[C@H](c3ccccc3)S2)cc1	81 nM	2300 nM	12 nM		550 nM				
Nc1ccccc1NC(=O)c1ccc(CN=C2N[C@H](c3ccccc3)CS2)cc1	56 nM	10700 nM	79 nM	> 20000 nM	370 nM				
Nc1cc2ccccc2cc1NC(=O)c1ccc(CNc2nccc(-c3cccnc3)n2)cc1	> 20000 nM	> 20000 nM	630 nM	> 20000 nM					
Nc1ccccc1NC(=O)c1ccc(CNC2=N[C@@H](c3ccc(O)cc3)CS2)cc1	44 nM	15000 nM	16 nM		180 nM				
Nc1ccccc1NC(=O)c1ccc(CSC2=N[C@@H](Cc3c[nH]c4ccccc34)CS2)cc1	920 nM	> 20000 nM	890 nM	> 20000 nM		9530 nM	2800 nM	3640 nM	9910 nM
Nc1ccccc1NC(=O)c1ccc(CSC2=N[C@@H](c3ccccc3)CS2)cc1	440 nM	5160 nM	63 nM	> 20000 nM					
Nc1ccccc1NC(=O)c1ccc(CNC2=N[C@H](c3ccccc3)[C@@H](c3ccccc3)S2)cc1	425 nM	14900 nM	287 nM						
Nc1cc(CO)ccc1NC(=O)c1ccc(CNc2nccc(-c3cccnc3)n2)cc1	> 20000 nM	> 20000 nM	> 20000 nM	> 20000 nM					
CC(=O)N1C(NCc2ccc(C(=O)Nc3ccccc3N)cc2)=NC(=O)C1Cc1c[nH]c2ccccc12 (racemic)	116 nM	24300 nM	70 nM	> 20000 nM					
CC(=O)N1C(NCc2ccc(C(=O)Nc3ccccc3N)cc2)=NC(=O)C1Cc1ccccc1 (racemic)	260 nM	22700 nM	83 nM	> 20000 nM					
Nc1ccccc1NC(=O)c1ccc(CNC2=N[C@@H](Cc3ccccc3)CS2)cc1	104 nM	34900 nM	52 nM	> 20000 nM	920 nM	6370 nM	5450 nM	1950 nM	3090 nM
Nc1cc(O)ccc1NC(=O)c1ccc(CNc2nccc(-c3cccnc3)n2)cc1	1430 nM	> 20000 nM	719 nM	> 20000 nM					
Nc1cc(Br)ccc1NC(=O)c1ccc(CNc2nccc(-c3cccnc3)n2)cc1	> 20000 nM	> 20000 nM	4720 nM	> 20000 nM					
Nc1ccccc1NC(=O)c1ccc(CSC2=N[C@@H](Cc3ccccc3)CS2)cc1	580 nM	> 20000 nM	509 nM	> 20000 nM					
Nc1ccccc1NC(=O)c1ccc(CNC2=NC[C@@H](c3ccccc3)S2)cc1	111 nM	1400 nM	23 nM						
Nc1ccccc1NC(=O)c1ccc(CNC2=NC(=O)C(Cc3ccccc3)N2)cc1 (racemic)	66 nM	13000 nM	30 nM	> 20000 nM		> 50000 nM	> 50000 nM	16600 nM	> 50000 nM
Nc1ccccc1NC(=O)c1ccc(CN=C2N[C@H](Cc3ccccc3)CS2)cc1	82 nM	12700 nM	36 nM	> 20000 nM	410 nM				
Nc1cc(-c2ccccc2)ccc1NC(=O)c1ccc(CNc2nccc(-c3cccnc3)n2)cc1	16700 nM	> 20000 nM	> 20000 nM	> 20000 nM					
Nc1cc(C(=O)OCc2ccccc2)ccc1NC(=O)c1ccc(CNc2nccc(-c3cccnc3)n2)cc1	> 20000 nM	> 20000 nM	> 20000 nM	> 20000 nM					
O=C(CCCCCCC(=O)Nc1ccccc1)NO [VORINOSTAT]						2270 nM			2290 nM
CC(C)(C)[Si](C)(C)OCc1ccc(NC(=O)c2ccc(CNc3nccc(-c4cccnc4)n3)cc2)c(N)c1	> 20000 nM	> 20000 nM	> 20000 nM	> 20000 nM					
Nc1ccccc1NC(=O)c1ccc(CNC2=NC(=O)C(Cc3c[nH]c4ccccc34)N2)cc1 (racemic)	78 nM	> 20000 nM	104 nM	> 20000 nM	190 nM				
Nc1ccccc1NC(=O)c1ccc(CN=C2N[C@@H](c3ccccc3)[C@H](c3ccccc3)S2)cc1	538 nM	12600 nM	388 nM						
